Patent publication US20230165853A1, “METHOD FOR TREATING CHRONIC KIDNEY DISEASES” (ENYO PHARMA, priority 2021, published 2023)
Values joined by “and” are separate entries in the source; they are usually repeats but may differ in a detail not shown here. Equal entries are not always repeated. “Also recorded” adds a separate entry of the source. Marks after values point to notes of the source that are not given here.

What was measured:
Nx mice [1] = assay: Subtotal nephrectomy (Nx) mouse model of CKD, curative study, interstitial fibrosis by PSR (Example 2); type: in vivo; conditions: initiated 5 weeks after Nx
Source text: Analysis has been focused on an experimental model of CKD, i.e. the subtotal nephrectomy (Nx). In this model, a “curative study” was investigated, i.e. treatments have been initiated 5 weeks after Nx, when lesions are already developed.
54 nine-week old FVB female mice have been investigated, of which 6 have been submitted to sham operation (controls) and 48 to subtotal nephrectomy (Nx), which consist in the excision of the right kidney and the two poles of the left kidney to reach 75% reduction of total renal mass. Surgery was performed under xylazine (Rompun 2%; Bayer, Leverkusen, France) (6 μg/g of body weight) and ketamine (Clorketam 1000; Vetoquinol SA, Lirre, France) (120 μg/g of body weight) anesthesia. […]
Kidneys were fixed in 4% paraformaldehyde, paraffin embedded, and 4-μm sections were stained with picrosirius red (PSR). […] All sections were evaluated by a pathologist who was blinded to the treatment groups.
(§1) Staining of all kidney samples with picrosirius red (PSR) was performed, and red intensity above a defined threshold was defined as fibrosis. For interstitial fibrosis, at least 10 to 15 random selected fields (magnification ×200) across the corticomedullary junction were analyzed per each kidney section, and the results were expressed as percentages of the total area of the selected fields.

Nx mice [2] = assay: Subtotal nephrectomy (Nx) mouse model of CKD, curative study, renal histopathology (Example 1); type: in vivo
Source text: (§2) Analysis has been focused on an experimental model of CKD, i.e. the subtotal nephrectomy (Nx). In this model, a “curative study” was investigated, i.e. treatments have been initiated 5 weeks after Nx, when lesions are already developed. 42 nine-week old FVB female mice have been investigated, of which 6 have been submitted to sham operation (controls) and 36 to subtotal nephrectomy (Nx), which consist in the excision of the right kidney and the two poles of the left kidney to reach 75% reduction of total renal mass. Surgery was performed under xylazine (Rompun 2%; Bayer, Leverkusen, France) (6 μg/g of body weight) and ketamine (Clorketam 1000; Vetoquinol SA, Lirre, France) (120 μg/g of body weight) anesthesia.
(§3) After 5 weeks, mice have been divided into 4 groups: • Sham mice treated with the vehicle (n=6) • Nx mice treated with the vehicle (n=10) • Nx mice treated with dEF2572 FXR agonist (4-bromo-5-[4-(2,6-dichloro-benzenesulfonyl)-piperazin-1-yl]-benzofuran-2-carboxylic acid) at 100 mg/Kg/day (n=11) • Nx mice treated with Nidufexor (LMB763) FXR agonist at 30 mg/Kg/day (n=10)
Compounds have been administered once a day (QD) per oral gavage.
Mice have been sacrificed 3 weeks later. Blood has been collected just before sacrifice. At sacrifice, kidneys have been harvested for morphological and mRNA analyses.
Kidneys were fixed in 4% paraformaldehyde, paraffin embedded, and 4-μm sections were stained with Periodic acid-Schiff (PAS), Masson's trichrome, Hematoxylin and eosin, and picrosirius red (PSR). Images were acquired using a Nikon Digital Camera Dx/m/1200. All sections were evaluated by a pathologist who was blinded to the treatment groups.
The degree of glomerular lesions was evaluated on Periodic acid-Schiff (PAS) staining using a semi-quantitative score methodology. Briefly, 40-60 glomeruli per mouse were scored at a magnification of ×400, using the following scoring system: 0=no lesion, 1=mild sclerosis, interesting 10-25% of the glomerulus, 2=moderate sclerosis, interesting 25%-50% of the glomerulus, 3=severe sclerosis interesting 50%-75% of the glomerulus, and 4=global sclerosis interesting >75% of the glomerulus. The results were expressed as the mean of the scores of 40-60 glomeruli per mouse.
as §1, with “The degree of tubular dilations was automatically quantified on PAS staining using Image J/Fiji software, version 2.1.0. The extent of interstitial fibrosis was also quantified using Image J/Fiji software. Staining” for “Staining”, “performed simultaneously,” for “performed,”, “For tubular dilations and” for “For”

[3] = tested on: FXR target genes (OSTA and OSTB); assay: Renal OSTA and OSTB mRNA levels by quantitative RT-PCR in Nx mice (Example 1); type: in vivo, mouse; conditions: Nx mice kidneys
Description: Mice were subjected to a subtotal nephrectomy (Nx). Treatments were initiated 5 weeks after Nx for a duration of 3 weeks. Kidneys were collected at sacrifice, and OSTA and OSTB mRNA levels were assessed by quantitative RT-PCR. p-values are indicated on the graphs.
as §2
as §3, with “mg/Kg/day (n=10) […]” for “mg/Kg/day (n=10)”

NASH patients = assay: Randomized, double-blind, placebo-controlled Livify NASH trial (Phase 2a); type: in vivo, human; conditions: for ALT, absolute change (IU/L) / Alpha-2-Macroglobulin, absolute change (mg/dL) / Body Weight, absolute change (kg) / Change Relative LFC, % / GGT, absolute change (IU/L) / Waist-to-Hip Ratio, absolute change / cT1, absolute change (msec) / eGFR, absolute change (mL/min/1.73 m^2) / Change Absolute LFC, %: change from baseline to W12, mean (SD); for Change Absolute LFC, %: MRI-PDFF
Description: Vonafexor has anti-fibrotic effects in NASH and Chronic Kidney Disease (CKD) models. Up to 64% of NASH patients have decreased estimated glomerular filtration rate (eGFR <90 mL/min/1.73 m^2) which can evolve into CKD. […] 96 patients were randomized 1:1:1 to daily oral Placebo (PBO, n=32) or VONA (Vonafexor) 100 mg (n=31) or 200 mg (n=33) for 12 weeks (W12). Inclusion criteria required phenotypic stage 2 or 3 fibrosis NASH with an absolute liver fat content (LFC by MRI-PDFF) ≥10% and liver stiffness by transient elastography [LSTE]≥8.5 kPa or previous biopsy-proven NASH. Randomization was stratified by diabetes and LFC.

[4] = 30 mg/Kg/day QD oral gavage for 3 weeks, 30 mg/kg/day
[5] = 100 mg/Kg/day QD oral gavage for 3 weeks, initiated 5 weeks after Nx
[6] = 100 mg/Kg/day QD oral gavage for 3 weeks, 100 mg/kg/day

CC[C@H]1[C@@H](O)[C@@H]2[C@H](CC[C@]3(C)[C@@H]([C@H](C)CCC(=O)O)CC[C@@H]23)[C@@]2(C)CC[C@@H](O)C[C@@H]12 [Obeticholic acid, reference compound]
renal interstitial fibrosis (picrosirius red staining positive areas) (Nx mice [1]; [4]): no significant effect

O=C(O)c1cc2c(Br)c(N3CCN(S(=O)(=O)c4c(Cl)cccc4Cl)CC3)ccc2o1 [dEF2572, 4-bromo-5-[4-(2,6-dichloro-benzenesulfonyl)-piperazin-1-yl]-benzofuran-2-carboxylic acid]
renal glomerular lesions (semi-quantitative score) (Nx mice [2]; [5]): significantly decreases
renal interstitial fibrosis (picrosirius red staining positive areas) (Nx mice [2]; [5]): significantly decreases
renal tubular dilatation (PAS staining) (Nx mice [2]; [5]): significantly decreases
renal expression of FXR target genes OSTA and OSTB (mRNA) [3, 6]: strong renal FXR target engagement; also recorded: significantly increase

O=C(O)c1cc2c(Cl)c(N3CCN(S(=O)(=O)c4c(Cl)cccc4Cl)CC3)ccc2o1 [Vonafexor, 4-chloro-5-[4-(2,6-dichloro-benzenesulfonyl)-piperazin-1-yl]-benzofuran-2-carboxylic acid]
patients discontinued participation due to pruritus (NASH patients; 100 mg): 9%
liver fibro-inflammation marker cT1 (Liver Multiscan) reduced by (NASH patients; 100 mg arm, p<0.001 vs PBO): 81 ms
% Patients >88 msec absolute reduction (cT1) (NASH patients; 100 mg daily oral, W12): 36% *
% Patients with >30% absolute reduction (LFC) (NASH patients; 100 mg daily oral, W12): 50% §
% Patients with >−17 IU/L reduction (ALT) (NASH patients; 100 mg daily oral, W12): 52% §
% Patients with any eGFR increase (NASH patients; 100 mg daily oral, W12): 76% §
ALT, absolute change (IU/L) (NASH patients; 100 mg daily oral): −19.3 (3.2) § IU/L
Alpha-2-Macroglobulin, absolute change (mg/dL) (NASH patients; 100 mg daily oral): −25.9 (4.3) #, § mg/dL
Body Weight, absolute change (kg) (NASH patients; 100 mg daily oral): −1.7 (0.5) #,§ kg
Change Relative LFC, % (NASH patients; 100 mg daily oral): −30.0 (4.7) #, § %
GGT, absolute change (IU/L) (NASH patients; 100 mg daily oral): −40.6 (3.3) #, § IU/L
Waist-to-Hip Ratio, absolute change (NASH patients; 100 mg daily oral): −0.02 (0.0) #, §
cT1, absolute change (msec) (NASH patients; 100 mg daily oral): −80.6 (15.4) #, § msec
eGFR, absolute change (mL/min/1.73 m^2) (NASH patients; 100 mg daily oral): +6.0 (9.5) #, § mL/min/1.73 m^2
Change Absolute LFC, % (NASH patients; 100 mg daily oral): −6.3% and −6.3 (0.9) #, § %
non-drug related severe adverse events (number) (NASH patients; 100 mg group): 2
mean improvement in eGFR (NASH patients; 100 mg or 200 mg treated subjects, 12 weeks): +5.6 mL/min/1.73 m^2
patients with an eGFR increase >0.1 mL/min/1.73 m (NASH patients; 100 mg treated subjects, 12-week treatment period): 76%
% Patients >88 msec absolute reduction (cT1) (NASH patients; 200 mg daily oral, W12): 36% *
% Patients with >5% absolute LFC reduction (NASH patients; 200 mg daily oral, W12): 43% §
% Patients with >30% absolute reduction (LFC) (NASH patients; 200 mg daily oral, W12): 39% §
% Patients with >−17 IU/L reduction (ALT) (NASH patients; 200 mg daily oral, W12): 36%
% Patients with any eGFR increase (NASH patients; 200 mg daily oral, W12): 65% §
ALT, absolute change (IU/L) (NASH patients; 200 mg daily oral): −10.8 (3.3) IU/L
Alpha-2-Macroglobulin, absolute change (mg/dL) (NASH patients; 200 mg daily oral): −18.4 (4.5) #, § mg/dL
Body Weight, absolute change (kg) (NASH patients; 200 mg daily oral): −2.5 (0.5) #, § kg
Change Relative LFC, % (NASH patients; 200 mg daily oral): −25.5 (4.6) #, § %
GGT, absolute change (IU/L) (NASH patients; 200 mg daily oral): −34.1 (3.3) #, § IU/L
Waist-to-Hip Ratio, absolute change (NASH patients; 200 mg daily oral): −0.01 (0.0)
cT1, absolute change (msec) (NASH patients; 200 mg daily oral): −71.9 (14.2) #, § msec
eGFR, absolute change (mL/min/1.73 m^2) (NASH patients; 200 mg daily oral): +2.5 (14.5) #, § mL/min/1.73 m^2
Change Absolute LFC, % (NASH patients; 200 mg daily oral): −5.5% and −5.5 (0.9) #, § %
non-drug related severe adverse events (number) (NASH patients; 200 mg group): 2
overall safety and tolerability (NASH patients; NASH patients, 100 mg or 200 mg daily for 12 weeks): safe and well tolerated
ALT increases Grade 2 (NASH patients; NASH patients, 12 weeks): No ALT increases Grade 2
increase in low density lipoprotein-cholesterol (LDL-C) (NASH patients; NASH patients, 12 weeks): 34%
alpha-2-Macroglobulin (A2M) plasma levels (NASH patients; NASH patients, reduction correlated with eGFR improvement (p<0.05)): reduced
mean reduction in ALT (NASH patients; VONA treatment (dose not stated), 12 weeks): 26%
patients achieving relative LFC reduction of >30% (NASH patients; VONA-treated (dose not stated), W12): 50%
mean reduction in GGT (NASH patients; VONA-treated subjects (dose not stated), p<0.001): 42%
renal interstitial fibrosis (picrosirius red staining positive areas) (Nx mice [1]; [6]): significantly decreases; also recorded: significantly better than OCA; also recorded: higher beneficial effects than Losartan

Cn1nc(C(=O)N(Cc2ccccc2)Cc2ccc(C(=O)O)cc2)c2c1-c1cc(Cl)ccc1OC2 [Nidufexor]
interstitial fibrosis (Nx mice [2]; 30 mg/Kg/day QD oral gavage for 3 weeks (FIG. 1)): no significant effect
beneficial effects on the kidneys (interstitial fibrosis, tubular dilatation, glomerular lesions) (Nx mice [2]; 30 mg/Kg/day QD oral gavage for 3 weeks, initiated 5 weeks after Nx): not observed
renal expression of FXR target genes OSTA and OSTB (mRNA) [3, 4]: strong renal FXR target engagement; also recorded: more powerful FXR agonist than the identified compounds; also recorded: significantly increase
